Results from patent US11319324B2, “Pyrazolo-pyrrolo-pyrimidine-dione derivatives as P2X3 inhibitors” (Bayer Aktiengesellschaft, priority 2017, dated 2022).

Legend:
Format in all cases: cell-based
human P2X3 receptor [1] = target: T1, human P2X3 receptor (Homo sapiens, UniProt P56373); assay: Intracellular calcium measurement to assess antagonist activity at human P2X3 receptors (hP2X3 CHO), photina luminescence; set-up: expressed in transfected cells; host or cells: Chinese hamster ovary (CHO) cells; settings: column 2), CHO cells, agonist α,β-methylene-ATP at EC50
T1 sequence (P56373 1-397): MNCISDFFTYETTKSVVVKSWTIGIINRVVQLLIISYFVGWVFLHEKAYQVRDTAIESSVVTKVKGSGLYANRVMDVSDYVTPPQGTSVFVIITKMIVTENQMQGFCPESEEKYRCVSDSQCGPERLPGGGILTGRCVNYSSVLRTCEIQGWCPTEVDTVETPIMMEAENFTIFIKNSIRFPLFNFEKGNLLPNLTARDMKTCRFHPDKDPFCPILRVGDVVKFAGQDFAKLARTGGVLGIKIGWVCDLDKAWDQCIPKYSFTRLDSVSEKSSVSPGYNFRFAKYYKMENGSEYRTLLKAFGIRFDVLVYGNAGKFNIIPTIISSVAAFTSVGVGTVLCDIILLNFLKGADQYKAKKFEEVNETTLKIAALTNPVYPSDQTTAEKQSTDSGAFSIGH
Procedure: 2) Intracellular Calcium Measurement to Assess Antagonist Activity at Human P2X3 Receptors (hP2X3 CHO)
The determination of antagonistic activity at the P2X3 receptor of the compounds of the invention was performed by use of a recombinant cell line. This cell line derives originally from the Chinese hamster ovary (CHO) cell line (Tjio J. H.; Puck T. T., 1958, J. Exp. Med. 108: 259-271). The cell line is stably transfected with the human P2X3 receptor and a calcium-sensitive photoprotein, mitochondrial photina, which, after reconstitution with the cofactor coelenterazine, emits light in dependence of calcium binding [Bovolenta S, Foti M, Lohmer S, Corazza S., J Biomol Screen. 2007 August; 12(5):694-704]. The strength of the photina luminescence signal corresponds to the level of receptor activation upon agonist binding. An inhibitor would decrease the signal depending on its potency and concentration. Bioluminescence was detected using a suitable luminometer [Milligan G, Marshall F, Rees S, Trends in Pharmacological Sciences 17,235-237 (1996)].
On the day before the assay, the cells were plated out in culture medium (DMEM/F12 (PAN, P04-41451), 10% FCS) in 384-well microtiter plates and kept in a cell incubator (96% humidity, 5% v/v CO2, […]). On the day of the assay medium was replaced by 2 mM Ca-tyrode buffer containing 5 μg/ml coelenterazine. Plates were incubated for 3 hours at 37° C. (96% humidity, 5% v/v CO2). […] The resulting light signal was measured immediately in the luminometer.

human P2X3 receptor [2] = target: T1, human P2X3 receptor; assay: Intracellular calcium measurement, antagonist activity at human P2X3 receptors (hP2X3 1321N1), Fluo8; set-up: expressed in transfected cells; host or cells: human astrocytoma 1321N1 (1312N1 [sic]); settings: column 3); 1321N1 cells, human P2X3, Fluo8, agonist ATP at EC50
Procedure: (§1) 3) And 4) Intracellular Calcium Measurement to Compare Antagonist Activity at Human P2X3 Receptors (hP2X3 1321N1) and at Human P2X2/3 Receptors (hP2X23 1321N1)
(§2) The comparison of antagonistic activity at the P2X3 versus the P2X2/3 receptor of the compounds of the invention were performed by use of recombinant cell lines. These cell lines derived originally from the human astrocytoma cell line […] (Macintyre E H, Pontén J, Vatter A E. Acta Pathol Microbiol Scand A. 1972; 80(2):267-83). The cell lines are stably transfected with the human P2X3 receptor forming homotrimeric P2X3 receptors or are co-transfected with P2X2 and P2X3 forming heterotrimeric P2X2/3 receptors. Stimulation of the receptors with the agonist ATP leads to a conformational change of the receptors and influx of extracellular calcium ions through the open ion channel. The cytoplasmatic calcium transient is detected via the calcium sensitive dye Fluo8. The strength of Fluo8 fluorescence signal corresponds to the level of receptor activation. An inhibitor would decrease the signal depending on its potency and concentration. Fluorescence was measured by use of a suitable fluorescence reader.
(§3) On the day before the assay, the cells were plated in culture medium (DMEM high glucose, 10% FCS, 1% MEM non-essential amino acids, 4 mM Glutamax) in 384-well poly-D-lysine coated microtiter plates and kept in a cell incubator (96% humidity, 5% v/v CO2, 37° C.). On the day of the assay medium was exchanged by Fluo8 containing buffer and incubated for 60 minutes. Test compounds were added at various concentrations and plates were incubated for 10 minutes. In the fluorescence reader a 3 seconds baseline measurement was performed and the agonist ATP was applied at EC50 concentration of the respective receptor during constant fluorescence measurement for 120 seconds.

human P2X2/3 receptors = target: T2, human P2X2/3 receptors (Homo sapiens, UniProt P56373+Q9UBL9); assay: Intracellular calcium measurement, antagonist activity at human P2X2/3 receptors (hP2X23 1321N1), Fluo8; settings: for IC50: column 4); 1321N1 cells, human P2X2/3, Fluo8, agonist ATP at EC50; read-out: 4) hP2X2/3 IC50 [nM] (1321N1); for hP2X23/hP2X3* Selectivity (1321N1): ratio of column 4) hP2X2/3 to column 3) hP2X3, 1321N1
T2 construct: expressed in transfected cells; host or cells: human astrocytoma 1321N1 (1312N1 [sic])
T2 sequence (P56373 1-397): T1 sequence (P56373 1-397)
T2 sequence (Q9UBL9 1-471): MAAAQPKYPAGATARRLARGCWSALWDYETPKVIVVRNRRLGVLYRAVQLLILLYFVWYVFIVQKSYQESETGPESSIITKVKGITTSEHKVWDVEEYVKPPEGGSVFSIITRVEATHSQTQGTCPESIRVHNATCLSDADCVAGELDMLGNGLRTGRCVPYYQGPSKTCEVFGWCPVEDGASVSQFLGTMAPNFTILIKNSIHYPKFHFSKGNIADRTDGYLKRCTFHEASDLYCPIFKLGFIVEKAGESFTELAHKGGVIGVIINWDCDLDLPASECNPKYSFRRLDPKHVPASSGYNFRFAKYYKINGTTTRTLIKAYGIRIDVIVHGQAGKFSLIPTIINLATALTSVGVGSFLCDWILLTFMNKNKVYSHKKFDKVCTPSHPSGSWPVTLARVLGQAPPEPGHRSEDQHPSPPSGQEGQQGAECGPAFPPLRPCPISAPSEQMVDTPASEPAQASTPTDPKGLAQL
Procedure: as §1, §2, §3

| SMILES | IC50 (human P2X3 receptor [1]) [nM] | IC50 (human P2X3 receptor [2]) [nM] | IC50 (human P2X2/3 receptors) [nM] | hP2X23/hP2X3* Selectivity (1321N1) (human P2X2/3 receptors) |
| --- | --- | --- | --- | --- |
| CCc1cc2n(CC(=O)Nc3ccc(F)cn3)c3c(c(=O)n2n1)CN(C1CCOC1)C3=O (racemic) [Example 71, 2-{2-ethyl-5,8-dioxo-6-[(±)-tetrahydrofuran-3-yl]-5,6,7,8-tetrahydro-4H-pyrazolo[1,5-a]pyrrolo[3,4-d]pyrimidin-4-yl}-N-(5-fluoropyridin-2-yl)acetamide] | 111 | 125 | > 23000 | >184 |
| CCc1cc2n(CC(=O)Nc3ccc(F)cn3)c3c(c(=O)n2n1)CN(CC1CCCO1)C3=O (racemic) [Example 77, 2-{2-ethyl-5,8-dioxo-6-[(±)-tetrahydrofuran-2-ylmethyl]-5,6,7,8-tetrahydro-4H-pyrazolo[1,5-a]pyrrolo[3,4-d]pyrimidin-4-yl}-N-(5-fluoropyridin-2-yl)acetamide] | 102 | 185 | 9050 | 49 |
| CC(C)N1Cc2c(n(CC(=O)Nc3ccc(F)cn3)c3cc(C4CCOC4)nn3c2=O)C1=O (racemic) [Example 228, 2-{5,8-dioxo-2-[(±)-oxolan-3-yl]-6-(propan-2-yl)-5,6,7,8-tetrahydro-4H-pyrazolo[1,5-a]pyrrolo[3,4-d]pyrimidin-4-yl}-N-(5-fluoropyridin-2-yl)acetamide] | 95 | 20 | > 23500 | >1175 |
| CC(C)N1Cc2c(n(CC(=O)Nc3ccc(F)cn3)c3cc(C4CCNC4)nn3c2=O)C1=O.Cl (racemic) [Example 235, 2-{5,8-dioxo-6-(propan-2-yl)-2-[(±)-pyrrolidin-3-yl]-5,6,7,8-tetrahydro-4H-pyrazolo[1,5-a]pyrrolo[3,4-d]pyrimidin-4-yl}-N-(5-fluoropyridin-2-yl)acetamide hydrochloride (1:1)] | 155 | 340 | > 66000 | >194 |
| CCc1cc2n(CC(=O)Nc3ccc(F)cn3)c3c(c(=O)n2n1)CN(C1CCNC1)C3=O.Cl (racemic) [Example 236, 2-{2-ethyl-5,8-dioxo-6-[(±)-pyrrolidin-3-yl]-5,6,7,8-tetrahydro-4H-pyrazolo[1,5-a]pyrrolo[3,4-d]pyrimidin-4-yl}-N-(5-fluoropyridin-2-yl)acetamide hydrochloride (1:1)] | 615 | 1280 | > 32000 | >25 |
| CC(C)N1Cc2c(n(CC(=O)Nc3ccc(F)cn3)c3cc(C4CCN(C)C4)nn3c2=O)C1=O (racemic) [Example 249, N-(5-fluoropyridin-2-yl)-2-{2-[(±)-1-methylpyrrolidin-3-yl]-5,8-dioxo-6-(propan-2-yl)-5,6,7,8-tetrahydro-4H-pyrazolo[1,5-a]pyrrolo[3,4-d]pyrimidin-4-yl}acetamide] | 305 | 109 | 9200 | 85 |
| CCc1cc2n(CC(=O)Nc3ccc(F)cn3)c3c(c(=O)n2n1)CN(C1CCN(C(=O)NC(C)C)C1)C3=O (racemic) [Example 274, (±)-3-[2-ethyl-4-{2-[(5-fluoropyridin-2-yl)amino]-2-oxoethyl}-5,8-dioxo-5,8-dihydro-4H-pyrazolo[1,5-a]pyrrolo[3,4-d]pyrimidin-6(7H)-yl]-N-(propan-2-yl)pyrrolidine-1-carboxamide] | 187 | 125 | > 32000 | >256 |
| CC(O)c1cc2n(CC(=O)Nc3ccc(F)cn3)c3c(c(=O)n2n1)CN(C(C)C)C3=O (racemic) [Example 275, N-(5-fluoropyridin-2-yl)-2-{2-[(±)-1-hydroxyethyl]-5,8-dioxo-6-(propan-2-yl)-5,6,7,8-tetrahydro-4H-pyrazolo[1,5-a]pyrrolo[3,4-d]pyrimidin-4-yl}acetamide] | 173 | 210 | > 32000 | >152 |
| CCc1cc2n(CC(=O)Nc3ccc(F)cn3)c3c(c(=O)n2n1)CN(C1CCNC1)C3=O (single isomer, unassigned) [Example 277, 2-{2-ethyl-5,8-dioxo-6-[pyrrolidin-3-yl]-5,6,7,8-tetrahydro-4H-pyrazolo[1,5-a]pyrrolo[3,4-d]-pyrimidin-4-yl}-N-(5-fluoropyridin-2-yl)acetamide] | 150 | 110 | 7300 | 66 |

Stronger by IC50 (human P2X3 receptor [1]), values ahead:

| IC50 (human P2X3 receptor [1]) [nM] | IC50 (human P2X3 receptor [2]) [nM] | IC50 (human P2X2/3 receptors) [nM] | hP2X23/hP2X3* Selectivity (1321N1) (human P2X2/3 receptors) | SMILES |
| --- | --- | --- | --- | --- |
| 22 | 39 | 3050 | 78 | CC(C)N1Cc2c(n(CC(=O)Nc3ccc(F)cn3)c3cc(C4CCN(C(=O)OC(C)(C)C)C4)nn3c2=O)C1=O (racemic) [Example 226, tert-butyl(±)-3-[4-{2-[(5-fluoropyridin-2-yl)amino]-2-oxoethyl}-5,8-dioxo-6-(propan-2-yl)-5,6,7,8-tetrahydro-4H-pyrazolo[1,5-a]pyrrolo[3,4-d]pyrimidin-2-yl]pyrrolidine-1-carboxylate] |
| 29 | 57 | 6650 | 118 | CC(C)N1Cc2c(n(CC(=O)Nc3ccc(F)cn3)c3cc(C4CCN(S(C)(=O)=O)C4)nn3c2=O)C1=O (racemic) [Example 270, N-(5-fluoropyridin-2-yl)-2-{2-[(±)-1-(methylsulfonyl)pyrrolidin-3-yl]-5,8-dioxo-6-(propan-2-yl)-5,6,7,8-tetrahydro-4H-pyrazolo[1,5-a]pyrrolo[3,4-d]pyrimidin-4-yl}acetamide] |
| 20 | – | 5600 | – | COC[C@H](C)N1Cc2c(n(CC(=O)Nc3ccc(F)cn3)c3cc(C(=O)Nc4cccnn4)nn3c2=O)C1=O [Example 216] |
| 15 | – | 11500 | – | COC[C@H](C)N1Cc2c(n(CC(=O)Nc3ccc(F)cn3)c3cc(C(=O)N(C)Cc4cccnc4)nn3c2=O)C1=O [Example 218] |
| 15 | – | 1350 | – | O=C(Cn1c2c(c(=O)n3nc(C(=O)Nc4ccccc4F)cc13)CN(Cc1ccccn1)C2=O)Nc1ccc(F)cn1 [Example 222] |
